Laboratory results published in patent US20250073240A1, “NEW TREATMENT” (Verona Pharma PLC, priority 2023, published 2025).

Assays:
Assay type in all cases: in vivo, human
[1] = system: patients with symptomatic, moderate-to-severe COPD; assay: Pooled analysis of two phase 3 trials (Example 2): moderate/severe exacerbation rate and time to first exacerbation
[2] = system: patients with moderate to severe COPD; assay: Phase 3 clinical study (Example 1): safety assessment, risk of pneumonia; conditions: patients with blood eosinophil count <300 cells/μL
Protocol: (§1) A clinical study was conducted to determine the efficacy of ensifentrine in treating COPD compared with placebo. Ensifentrine was administered by nebuliser at a dose of 3 mg twice daily (BID) for 24 weeks. The study was a multi-centre, randomized, double-blind, parallel-group, placebo-controlled trial with around 800 patients and 5:3 randomization.
(§2) The study population included patients aged 40-80 years with moderate to severe COPD (FEV1 30%-70% p.n., FEV1/forced vital capacity (FVC) ratio <0.7, with mMRC≥2). The randomization stratified (a) the use of stable background maintenance LAMA or LABA therapy use (approx. 50%. yes or no) and (b) cigarette smoking (current or former). Inhaled corticosteroid (ICS) maintenance therapy was permitted in up to 20% of patients under certain provisions.

[3] = system: patients with moderate to severe COPD; assay: Phase 3 clinical study (Example 1): lung function, average FEV1 AUC0-12h
Protocol: as §1, §2
(§3) The primary endpoint of the study was change from baseline in average FEV1 area under the curve (AUC)0-12 h post-dose at week 12. Secondary endpoints of the study included: frequency of moderate/severe COPD exacerbations over 24 Weeks; time to first moderate/severe COPD exacerbation; and effect of blood eosinophil count of patients.
Baseline FEV1 is the mean of the two measurements taken before study medication on the day of first dosing, i.e. <40 minutes and just prior to dosing, both pre-dose on day 1.
Average FEV1 AUC0-12 h is defined as area under the curve over 12 hours of the FEV1, divided by 12 hours.
(§4) The investigational product and placebo were provided in 2.5 mL unit dose format in an ampule and administered via a nebuliser.

[4] = system: patients with moderate to severe COPD; assay: Phase 3 clinical study (Example 1): moderate/severe COPD exacerbations, by blood eosinophil count
Protocol: as §1, §2, §3
Exacerbations were defined as worsening of 2 or more major symptoms (dyspnea, sputum volume, and sputum purulence) or worsening of any 1 major symptom together with any 1 of the following minor symptoms: sore throat, colds, fever without other cause, and increased cough or wheeze for at least 2 consecutive days. COPD exacerbations were considered to be of moderate severity if treatment with systemic corticosteroids and/or antibiotics was required and were considered to be severe if hospitalization was required.
The blood eosinophil count of patients was determined as follows. • A blood sample (2 mL) was collected in 2 mL EDTA tube and mixed immediately using gentle inversion 8-10 times. • Eosinophils were tested as part of the Complete Blood Count (CBC) test panel and are part of the White Blood Cell (WBC) differential. • Testing was performed on the Beckman Coulter DxH 800, with testing performed daily on ambient samples. • The haematology parameters that constitute the CBC panel were produced using methods and technologies within the DxH800, including Coulter principle and VCSn laser flow cell technology. • The WBC differential was obtained using VCSn technology (Volume, Conductivity and Scatter) based on simultaneous measuring of cell volume, high frequency conductivity and laser light scatter. This produced an automated WBC differential. • During analysis, if any parameter was abnormal or outside established limits the instrument flagged this as abnormal and produced a stained blood slide. • Blood film review was completed using manual microscopy and a technician confirmed any abnormal findings. • The technician could have also provided a manual WBC differential during blood film review or confirm the automated WBC differential. • Finalised results were then provided.
as §4

[5] = Blood eosinophils < 100 cells/μL (n = 10)
[6] = Blood eosinophils ≥ 100 cells/μL (n = 74)
[7] = Blood eosinophils > 150 cells/μL (n = 445)
[8] = Blood eosinophils ≤ 150 cells/μL (n = 343)

COc1cc2c(cc1OC)-c1c/c(=N\c3c(C)cc(C)cc3C)n(CCNC(N)=O)c(=O)n1CC2 [Ensifentrine, N-(2-{(2E)-9,10-dimethoxy-4-oxo-2-[(2,4,6-trimethylphenyl)imino]-6,7-dihydro-2H-pyrimido[6,1-a]isoquinolin-3(4H)-yl}ethyl)urea]
Hazard Ratio (95% Confidence Interval), time to first moderate/severe exacerbation [1, 5]: 0.52 (0.22, 1.24) | Rate Ratio (95% Confidence Interval), moderate/severe exacerbation [1, 5]: 0.50 (0.22, 1.17) | Hazard Ratio (95% Confidence Interval), time to first moderate/severe exacerbation ([1]; Blood eosinophils < 300 cells/μL (n = 60)): 0.53 (0.37, 0.76) | Rate Ratio (95% Confidence Interval), moderate/severe exacerbation ([1]; Blood eosinophils < 300 cells/μL (n = 65)): 0.53 (0.37, 0.75) | Hazard Ratio (95% Confidence Interval), time to first moderate/severe exacerbation [1, 6]: 0.60 (0.43, 0.83) | Rate Ratio (95% Confidence Interval), moderate/severe exacerbation [1, 6]: 0.60 (0.43, 0.84) | Hazard Ratio (95% Confidence Interval), time to first moderate/severe exacerbation ([1]; Blood eosinophils ≥ 300 cells/μL (n = 24)): 0.79 (0.43, 1.45) | Rate Ratio (95% Confidence Interval), moderate/severe exacerbation ([1]; Blood eosinophils ≥ 300 cells/μL (n = 29)): 0.82 (0.45, 1.51) | reduction in exacerbation rate ([1]; blood eosinophil counts <100 cells/μL): about 50% | reduction in exacerbation rate ([1]; blood eosinophil counts ≤300 cells/μL): about 47% | number needed to treat (NNT) for the prevention of 1 exacerbation annually ([1]; pooled population): 6.25 patients | reduction in the moderate/severe exacerbation rate compared with placebo ([1]; pooled population, 3 mg BID over 24 weeks): 41% | reduction in risk (Cox proportional hazards model), time to first moderate/severe exacerbation ([1]; pooled population, 24 weeks): 41% | rate ratio, moderate/severe exacerbation rate ([1]; pooled population, 24 weeks, 95% CI 0.43-0.80): 0.59 | hazard ratio, time to first moderate/severe exacerbation ([1]; pooled population, 24 weeks, 95% CI 0.44-0.81): 0.59 | time to first moderate/severe exacerbation compared with placebo ([1]; pooled population, over 24 weeks, log rank test P=0.001): significantly delayed | transition from lower to higher exacerbation risk (group B to group E) compared with placebo ([1]; post hoc analysis, 24 weeks): numerically delayed | risk of pneumonia [2]: no significant increase | Average FEV1 (AUC)0-12 h post-dose at Week 12: Change from Baseline, CFB Least Squares Mean (95% CI) ([3]; 3 mg BID by nebuliser, week 12, n = 498): 48.2 (30.0, 66.5) mL | Average FEV1 (AUC)0-12 h post-dose at Week 12: Placebo-corrected CFB LS Mean Diff (95% CI) ([3]; 3 mg BID by nebuliser, week 12, vs placebo): 93.9 (64.5, 123.3) mL | improvement in lung function ([3]; all subgroups, 3 mg BID): statistically significant | Exacerbation Rate Reduction [4, 7]: 43% | Rate Ratio (95% Confidence Interval), COPD exacerbations [4, 7]: 0.57 (0.34, 0.97) | Exacerbation Rate Reduction [4, 8]: 42% | Rate Ratio (95% Confidence Interval), COPD exacerbations [4, 8]: 0.58 (0.30, 1.14) | reduction in relative risk of moderate or severe COPD exacerbation vs placebo ([4]; all patients, 3 mg BID, 24 weeks): approximately 40% | reduction in relative risk of moderate or severe COPD exacerbation vs placebo ([4]; subgroup blood eosinophil count <150 cells/μL): around 40% | reduction in relative risk of moderate or severe COPD exacerbation vs placebo ([4]; subgroup blood eosinophil count <300 cells/μL): around 50%
